Assay results reported in the NIST ThermoML archive (doi:10.1007/s10765-006-0114-6).

Settings: Fluid (supercritical or subcritical phases), vibrating plate method

[Ar] [argon]
Settings | mass density [kg/m3] | viscosity [mPa·s]
323.16 K, 7006 kPa | 107.17 | 0.02744
323.16 K, 13877 kPa | 213.45 | 0.02979
323.16 K, 20899 kPa | 316.3 | 0.03257
323.16 K, 27679 kPa | 408.2 | 0.0352
323.16 K, 34459 kPa | 489.8 | 0.0382
323.16 K, 41249 kPa | 561.2 | 0.0415
323.16 K, 48119 kPa | 624.2 | 0.0448
323.16 K, 54885 kPa | 678.5 | 0.0481
323.16 K, 61690 kPa | 726.2 | 0.0512
323.16 K, 68312 kPa | 767.5 | 0.0542
348.15 K, 6978 kPa | 97.69 | 0.02904
348.15 K, 17496 kPa | 241.15 | 0.03308
348.15 K, 27653 kPa | 368.7 | 0.0358
348.15 K, 34469 kPa | 444.9 | 0.0381
348.15 K, 41288 kPa | 513.1 | 0.0407
348.15 K, 48154 kPa | 574.3 | 0.0434
348.15 K, 54879 kPa | 627.8 | 0.0463
348.15 K, 61690 kPa | 676.3 | 0.049
348.15 K, 68529 kPa | 719.8 | 0.051
398.11 K, 7360 kPa | 88.47 | 0.0292
398.11 K, 13876 kPa | 165.12 | 0.03138
398.11 K, 27719 kPa | 316.2 | 0.0362
398.11 K, 34448 kPa | 382.2 | 0.0386
398.11 K, 41294 kPa | 443.6 | 0.0417
398.11 K, 48140 kPa | 499.6 | 0.0441
398.11 K, 54949 kPa | 550.4 | 0.0466
398.11 K, 61785 kPa | 596.9 | 0.0491
423.11 K, 7008 kPa | 79.27 | 0.03113
423.11 K, 7272 kPa | 82.13 | 0.02996
423.11 K, 14124 kPa | 157.84 | 0.03214
423.11 K, 14381 kPa | 160.69 | 0.03398
423.11 K, 21056 kPa | 231.04 | 0.0342
423.11 K, 21065 kPa | 231.06 | 0.0361
423.11 K, 27779 kPa | 297.59 | 0.0381
423.11 K, 27786 kPa | 297.92 | 0.0359
423.11 K, 34529 kPa | 359.8 | 0.0403
423.11 K, 34605 kPa | 361 | 0.0376
423.11 K, 41249 kPa | 417.7 | 0.0398
423.11 K, 48189 kPa | 472.3 | 0.0418
423.11 K, 48197 kPa | 472.3 | 0.0421
423.11 K, 55018 kPa | 521.5 | 0.0444
423.11 K, 61834 kPa | 566.5 | 0.0467
423.11 K, 68620 kPa | 608 | 0.0493
